From patent publication US10167262B2, “Herbicidal substituted 3-arylpyrazoles” (FMC CORPORATION, priority 2014, dated 2019)

How the values were obtained:
Assay in all cases: Test E pre-/postemergence greenhouse test, plant response rating 0-100
Type in all cases: in vivo
[1] = tested on: goosegrass (Eleusine indica); conditions: Preemergence, scale 0 to 100
[2] = tested on: johnsongrass (Sorghum halepense); conditions: Preemergence, scale 0 to 100
[3] = tested on: morningglory (Ipomoea coccinea); conditions: Preemergence, scale 0 to 100
[4] = tested on: green foxtail (Setaria viridis); conditions: Preemergence, scale 0 to 100
[5] = tested on: smartweed (ladysthumb smartweed, Polygonum persicaria); conditions: Preemergence, scale 0 to 100
[6] = tested on: yellow nutsedge (Cyperus esculentus); conditions: Preemergence, scale 0 to 100
[7] = tested on: giant foxtail (Setaria faberii); conditions: Preemergence, scale 0 to 100
[8] = tested on: waterhemp (common waterhemp, Amaranthus rudis); conditions: scale 0 to 100; for Plant response rating, Waterhemp: Postemergence; for Waterhemp plant response rating: Preemergence
Procedure, shortened: (§1)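 Rated visually against controls 14-21 days after treatment on a 0-100 scale (100 = complete control). Pre- and postemergence sprays used a non-phytotoxic solvent mixture with surfactant. Preemergence seeds were in silt loam; postemergence plants were in peat-based medium at the 1- to 4-leaf stage (2-18 cm).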

[9] = tested on: velvetleaf (Abutilon theophrasti); conditions: Preemergence, scale 0 to 100
Procedure, shortened: as §1

[10] = tested on: surinam grass (Brachiaria decumbens); conditions: Preemergence, scale 0 to 100
Procedure, shortened: as §1

[11] = tested on: ragweed (common ragweed, Ambrosia elatior); conditions: Preemergence, scale 0 to 100
Procedure, shortened: as §1

kochia (Kochia scoparia) = conditions: Preemergence, scale 0 to 100
Procedure, shortened: as §1

soybean (Glycine max) = conditions: scale 0 to 100; for Plant response rating, Soybean: Postemergence; for Soybean plant response rating: Preemergence
Procedure, shortened: as §1

[12] = tested on: field bindweed (Convolvulus arvensis); conditions: scale 0 to 100; for Plant response rating, Field Bindweed: Postemergence; for Field Bindweed plant response rating: Preemergence
Procedure, shortened: as §1

[13] = tested on: smartweed (ladysthumb smartweed, Polygonum persicaria); conditions: Postemergence, scale 0 to 100
[14] = tested on: large (Lg) crabgrass (Digitaria sanguinalis); conditions: Preemergence, scale 0 to 100

SMILES: O=C(c1ccccc1)c1cn(S(=O)(=O)C(F)(F)F)nc1-c1cc(Cl)cc(Cl)c1 [Compound 2]
- Goosegrass plant response rating ([1]; 31 g ai/ha): 0
- Goosegrass plant response rating ([1]; 62 g ai/ha): 0
- Goosegrass plant response rating ([1]; 125 g ai/ha): 0
- Goosegrass plant response rating ([1]; 250 g ai/ha): 0
- Goosegrass plant response rating ([1]; 500 g ai/ha): 0
- Johnsongrass plant response rating ([2]; 31 g ai/ha): 0
- Johnsongrass plant response rating ([2]; 62 g ai/ha): 0
- Johnsongrass plant response rating ([2]; 125 g ai/ha): 0
- Johnsongrass plant response rating ([2]; 250 g ai/ha): 0
- Johnsongrass plant response rating ([2]; 500 g ai/ha): 0
- Morningglory plant response rating ([3]; 31 g ai/ha): 0
- Morningglory plant response rating ([3]; 62 g ai/ha): 0
- Morningglory plant response rating ([3]; 125 g ai/ha): 0
- Morningglory plant response rating ([3]; 250 g ai/ha): 0
- Morningglory plant response rating ([3]; 500 g ai/ha): 0
- Foxtail, Green plant response rating ([4]; 31 g ai/ha): 0
- Foxtail, Green plant response rating ([4]; 62 g ai/ha): 0
- Foxtail, Green plant response rating ([4]; 125 g ai/ha): 0
- Foxtail, Green plant response rating ([4]; 250 g ai/ha): 0
- Foxtail, Green plant response rating ([4]; 500 g ai/ha): 0
- Smartweed plant response rating ([5]; 31 g ai/ha): 0
- Smartweed plant response rating ([5]; 125 g ai/ha): 0
- Smartweed plant response rating ([5]; 250 g ai/ha): 0
- Nutsedge, Yellow plant response rating ([6]; 31 g ai/ha): 0
- Nutsedge, Yellow plant response rating ([6]; 125 g ai/ha): 50
- Nutsedge, Yellow plant response rating ([6]; 250 g ai/ha): 40
- Nutsedge, Yellow plant response rating ([6]; 500 g ai/ha): 35
- Foxtail, Giant plant response rating ([7]; 31 g ai/ha): 0
- Foxtail, Giant plant response rating ([7]; 62 g ai/ha): 0
- Foxtail, Giant plant response rating ([7]; 125 g ai/ha): 0
- Foxtail, Giant plant response rating ([7]; 250 g ai/ha): 0
- Foxtail, Giant plant response rating ([7]; 500 g ai/ha): 0
- Plant response rating, Waterhemp ([8]; 31 g ai/ha): 90
- Plant response rating, Waterhemp ([8]; 62 g ai/ha): 80
- Plant response rating, Waterhemp ([8]; 125 g ai/ha): 98
- Plant response rating, Waterhemp ([8]; 250 g ai/ha): 98
- Plant response rating, Waterhemp ([8]; 500 g ai/ha): 100
- Waterhemp plant response rating ([8]; 31 g ai/ha): 0
- Waterhemp plant response rating ([8]; 125 g ai/ha): 30
- Waterhemp plant response rating ([8]; 250 g ai/ha): 65
- Waterhemp plant response rating ([8]; 500 g ai/ha): 100
- Velvetleaf plant response rating ([9]; 31 g ai/ha): 0
- Velvetleaf plant response rating ([9]; 62 g ai/ha): 0
- Velvetleaf plant response rating ([9]; 125 g ai/ha): 0
- Velvetleaf plant response rating ([9]; 250 g ai/ha): 0
- Velvetleaf plant response rating ([9]; 500 g ai/ha): 100
- Surinam Grass plant response rating ([10]; 31 g ai/ha): 0
- Surinam Grass plant response rating ([10]; 62 g ai/ha): 0
- Surinam Grass plant response rating ([10]; 125 g ai/ha): 0
- Surinam Grass plant response rating ([10]; 250 g ai/ha): 0
- Surinam Grass plant response rating ([10]; 500 g ai/ha): 0
- Ragweed plant response rating ([11]; 31 g ai/ha): 0
- Ragweed plant response rating ([11]; 125 g ai/ha): 0
- Ragweed plant response rating ([11]; 250 g ai/ha): 100
- Ragweed plant response rating ([11]; 500 g ai/ha): 100
- Kochia plant response rating (kochia (Kochia scoparia); 31 g ai/ha): 0
- Kochia plant response rating (kochia (Kochia scoparia); 62 g ai/ha): 0
- Kochia plant response rating (kochia (Kochia scoparia); 125 g ai/ha): 0
- Kochia plant response rating (kochia (Kochia scoparia); 250 g ai/ha): 65
- Kochia plant response rating (kochia (Kochia scoparia); 500 g ai/ha): 90
- Plant response rating, Soybean (soybean (Glycine max); 31 g ai/ha): 0
- Plant response rating, Soybean (soybean (Glycine max); 62 g ai/ha): 0
- Plant response rating, Soybean (soybean (Glycine max); 125 g ai/ha): 0
- Plant response rating, Soybean (soybean (Glycine max); 250 g ai/ha): 0
- Plant response rating, Soybean (soybean (Glycine max); 500 g ai/ha): 0
- Soybean plant response rating (soybean (Glycine max); 125 g ai/ha): 0
- Soybean plant response rating (soybean (Glycine max); 250 g ai/ha): 0
- Soybean plant response rating (soybean (Glycine max); 500 g ai/ha): 0
- Plant response rating, Field Bindweed ([12]; 31 g ai/ha): 0
- Plant response rating, Field Bindweed ([12]; 62 g ai/ha): 0
- Plant response rating, Field Bindweed ([12]; 125 g ai/ha): 0
- Plant response rating, Field Bindweed ([12]; 250 g ai/ha): 0
- Plant response rating, Field Bindweed ([12]; 500 g ai/ha): 0
- Field Bindweed plant response rating ([12]; 31 g ai/ha): 0
- Field Bindweed plant response rating ([12]; 62 g ai/ha): 0
- Field Bindweed plant response rating ([12]; 125 g ai/ha): 0
- Field Bindweed plant response rating ([12]; 250 g ai/ha): 0
- Field Bindweed plant response rating ([12]; 500 g ai/ha): 0
- Plant response rating, Smartweed ([13]; 31 g ai/ha): 0
- Plant response rating, Smartweed ([13]; 62 g ai/ha): 65
- Plant response rating, Smartweed ([13]; 125 g ai/ha): 75
- Plant response rating, Smartweed ([13]; 250 g ai/ha): 95
- Crabgrass, Large plant response rating ([14]; 31 g ai/ha): 0
- Crabgrass, Large plant response rating ([14]; 62 g ai/ha): 0
- Crabgrass, Large plant response rating ([14]; 125 g ai/ha): 0
- Crabgrass, Large plant response rating ([14]; 250 g ai/ha): 0
- Crabgrass, Large plant response rating ([14]; 500 g ai/ha): 0
